pKi: −log10 of the molar value. *1 amine or outer side, *2 acyl side, *3 side chain or, on linkers, in order; H or OH if unused. Where a SMILES comes first, the peptide text is derived from it. Side-chain parts run from the residue outwards. The star is where a group is joined. C18 diacid = O=C(O)CCCCCCCCCCCCCCCCC(=O)*; γGlu = O=C(O)[C@H](CCC(=O)[*:2])N[*:1]; Isovaleryl = CC(C)CC(=O)*; Ahx = NCCCCCC(=O)O
Legend:
[1] = target: T1, Human Neuropeptide Y2 Receptor (Homo sapiens, UniProt P49146); test: Radioligand binding competition assay (RLB); settings: Table 3, 125I-PYY(1-36) competition; read-out: Ki
T1 construct: purchased CHEMICON HTS066M
T1 sequence (P49146 1-381): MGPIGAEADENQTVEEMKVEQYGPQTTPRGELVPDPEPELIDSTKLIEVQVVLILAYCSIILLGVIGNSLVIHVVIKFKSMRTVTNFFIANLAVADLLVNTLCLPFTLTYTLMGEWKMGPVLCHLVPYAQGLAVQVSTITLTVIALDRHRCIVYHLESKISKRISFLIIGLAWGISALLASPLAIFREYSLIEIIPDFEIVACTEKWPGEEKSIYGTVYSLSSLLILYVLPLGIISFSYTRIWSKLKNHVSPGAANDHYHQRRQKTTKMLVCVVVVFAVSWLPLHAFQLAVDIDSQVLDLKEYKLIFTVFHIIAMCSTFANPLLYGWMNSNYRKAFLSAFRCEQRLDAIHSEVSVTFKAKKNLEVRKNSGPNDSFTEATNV
Outline: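 Receptor membranes, 0.5 μg/well; buffer 50 mM HEPES/5 mM MgCl2/1 mM CaCl2/0.2% ovalbumin, pH 7.4; 2 h RT, shaking. GF/C filtration, cold HEPES/500 mM NaCl wash, scintillation count. IC50 by nonlinear regression.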

[2] = Solubility determination; settings: for Sol6: pH 6; for Sol7: pH 7
Outline: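 Solubility is derived from the ratio of reversed-phase peak areas, filtered sample over a control dissolved at 1 mg/ml in 50% acetonitrile. Peptides are agitated for 2 hours at room temperature in 0.1 M sodium diphosphate at pH 6.4 or 7.0, aiming at 10 mg/ml.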

Row | SMILES | pKi [1] | Sol6 [2] [mg/mL] | Sol7 [2] [mg/mL]
1 | CC[C@H](C)[C@H](NC(=O)[C@H](CCC(=O)O)NC(=O)[C@H](CCC(=O)O)NC(=O)[C@@H]1CCCN1C(=O)[C@H](CCC(=O)O)NC(=O)[C@H](C)NC(=O)[C@H](C)NC(=O)[C@H](C)NC(=O)[C@H](CCC(=O)O)NC(=O)[C@@H]1CCCN1C(=O)[C@H](CCCCNC(=O)CCCCCNC(=O)CC[C@H](NC(=O)CCCCCCCCCCCCCCCCC(=O)O)C(=O)O)NC(=O)[C@H](C)NC(=O)[C@@H]1CCCN1C(=O)[C@H](C)NC(=O)CC(C)C)C(=O)N[C@@H](CCC(N)=O)C(=O)N[C@@H](CCCNC(=N)N)C(=O)N[C@@H](Cc1ccc(O)cc1)C(=O)N[C@@H](Cc1ccc(O)cc1)C(=O)N[C@H](C(=O)N[C@@H](CO)C(=O)N[C@@H](CC(C)C)C(=O)N[C@@H](CCCNC(=N)N)C(=O)N[C@@H](Cc1c[nH]cn1)C(=O)N[C@@H](Cc1ccc(O)cc1)C(=O)N[C@@H](Cc1ccc(O)cc1)C(=O)N[C@@H](CC(N)=O)C(=O)N[C@@H](Cc1c[nH]c2ccccc12)C(=O)N[C@@H](CC(C)C)C(=O)N[C@H](C(=O)N[C@@H](CCCNC(=N)N)C(=O)N[C@@H](CCC(N)=O)C(=O)N[C@@H](CCCNC(=N)N)C(=O)N[C@@H](Cc1ccc(O)cc1)C(N)=O)[C@@H](C)O)C(C)C [Compound 111, N{alpha-4}-(3-methylbutanoyl)-N{epsilon-7}-(6-[(4S)-4-carboxy-4-(17-carboxyheptadecanamido)butanamido]hexanoyl)-[4A,6A,7K,9E,10A,11A,13E,17I,18Q,22V,28Y,30W,31L]-hPYY(4-36)] (Isovaleryl-APAK([Ahx-γGlu-C18 diacid])PEAAAEPEEIQRYYVSLRHYYNWLTRQRY-NH2) | 8.67 | 0.0 | 0.0
2 | CC(C)CC(=O)N[C@@H](C)C(=O)N1CCC[C@H]1C(=O)N[C@@H](C)C(=O)N[C@@H](CCCCNC(=O)CCCCCNC(=O)CC[C@H](NC(=O)CCCCCCCCCCCCCCCCC(=O)O)C(=O)O)C(=O)N1CCC[C@H]1C(=O)N[C@@H](CCC(=O)O)C(=O)N[C@@H](CCC(=O)O)C(=O)N[C@@H](CC(=O)O)C(=O)N[C@@H](C)C(=O)N[C@@H](CO)C(=O)N1CCC[C@H]1C(=O)N[C@@H](CCC(=O)O)C(=O)N[C@@H](CCC(=O)O)C(=O)N[C@@H](CC(C)C)C(=O)N[C@@H](CCC(N)=O)C(=O)N[C@@H](CCCNC(=N)N)C(=O)N[C@@H](Cc1ccc(O)cc1)C(=O)N[C@@H](Cc1ccc(O)cc1)C(=O)N[C@H](C(=O)N[C@@H](CO)C(=O)N[C@@H](CC(C)C)C(=O)N[C@@H](CCCNC(=N)N)C(=O)N[C@@H](Cc1c[nH]cn1)C(=O)N[C@@H](Cc1ccc(O)cc1)C(=O)N[C@@H](CCC(N)=O)C(=O)N[C@@H](CC(N)=O)C(=O)N[C@@H](Cc1c[nH]c2ccccc12)C(=O)N[C@@H](CC(C)C)C(=O)N[C@H](C(=O)N[C@@H](CCCNC(=N)N)C(=O)N[C@@H](CCC(N)=O)C(=O)N[C@@H](CCCNC(=N)N)C(=O)N[C@@H](Cc1ccc(O)cc1)C(N)=O)[C@@H](C)O)C(C)C [Compound 77, N{alpha-4}-(3-methylbutanoyl)-N{epsilon-7}-(6-[(4S)-4-carboxy-4-(17-carboxyheptadecanamido)butanamido]hexanoyl)-[4A,6A,7K,9E,18Q,22V,28Q,30W,31L]-hPYY(4-36)] | 8.01 | >10.0 | 9.0
3 | CC[C@H](C)[C@H](NC(=O)[C@H](CCC(=O)O)NC(=O)[C@H](CCC(=O)O)NC(=O)[C@@H]1CCCN1C(=O)[C@H](CCC(=O)O)NC(=O)[C@H](C)NC(=O)[C@H](C)NC(=O)[C@H](CCC(=O)O)NC(=O)[C@H](CCC(=O)O)NC(=O)[C@@H]1CCCN1C(=O)[C@H](CCCCNC(=O)CCCCCNC(=O)CC[C@H](NC(=O)CCCCCCCCCCCCCCCCC(=O)O)C(=O)O)NC(=O)[C@H](CCC(=O)O)NC(=O)[C@@H]1CCCN1C(=O)[C@H](C)NC(=O)CC(C)C)C(=O)N[C@@H](CCC(N)=O)C(=O)N[C@@H](CCCNC(=N)N)C(=O)N[C@@H](Cc1ccc(O)cc1)C(=O)N[C@@H](Cc1ccc(O)cc1)C(=O)N[C@H](C(=O)N[C@@H](C)C(=O)N[C@@H](CC(C)C)C(=O)N[C@@H](CCCNC(=N)N)C(=O)N[C@@H](Cc1c[nH]cn1)C(=O)N[C@@H](Cc1ccc(O)cc1)C(=O)N[C@@H](Cc1ccc(O)cc1)C(=O)N[C@@H](CC(N)=O)C(=O)N[C@@H](Cc1c[nH]c2ccccc12)C(=O)N[C@@H](CC(C)C)C(=O)N[C@H](C(=O)N[C@@H](CCCNC(=N)N)C(=O)N[C@@H](CCC(N)=O)C(=O)N[C@@H](CCCNC(=N)N)C(=O)N[C@@H](Cc1ccc(O)cc1)C(N)=O)[C@@H](C)O)C(C)C [Compound 156, N{alpha-4}-(3-methylbutanoyl)-N{epsilon-7}-(6-[(4S)-4-carboxy-4-(17-carboxyheptadecanamido)butanamido]hexanoyl)-[4A,7K,9E,11A,13E,17I,18Q,22V,23A,28Y,30W,31L]-hPYY(4-36)] | 8.38 | 9.8 | 9.6
4 | CC[C@H](C)[C@H](NC(=O)[C@H](CCC(=O)O)NC(=O)[C@H](CCC(=O)O)NC(=O)[C@@H]1CCCN1C(=O)[C@H](CCC(N)=O)NC(=O)[C@H](C)NC(=O)[C@H](CC(=O)O)NC(=O)[C@H](CCC(=O)O)NC(=O)[C@H](CCC(=O)O)NC(=O)[C@@H]1CCCN1C(=O)[C@H](CCCCNC(=O)CCCCCNC(=O)CC[C@H](NC(=O)CCCCCCCCCCCCCCCCC(=O)O)C(=O)O)NC(=O)[C@H](CCC(=O)O)NC(=O)[C@@H]1CCCN1C(=O)[C@H](C)NC(=O)CC(C)C)C(=O)N[C@@H](CCC(N)=O)C(=O)N[C@@H](CCCNC(=N)N)C(=O)N[C@@H](Cc1ccc(O)cc1)C(=O)N[C@@H](Cc1ccc(O)cc1)C(=O)N[C@H](C(=O)N[C@@H](CO)C(=O)N[C@@H](CC(C)C)C(=O)N[C@@H](CCCNC(=N)N)C(=O)N[C@@H](Cc1c[nH]cn1)C(=O)N[C@@H](Cc1ccc(O)cc1)C(=O)N[C@@H](Cc1ccc(O)cc1)C(=O)N[C@@H](CC(N)=O)C(=O)N[C@@H](Cc1c[nH]c2ccccc12)C(=O)N[C@@H](CC(C)C)C(=O)N[C@H](C(=O)N[C@@H](CCCNC(=N)N)C(=O)N[C@@H](CCC(N)=O)C(=O)N[C@@H](CCCNC(=N)N)C(=O)N[C@@H](Cc1ccc(O)cc1)C(N)=O)[C@@H](C)O)C(C)C [Compound 81, N{alpha-4}-(3-methylbutanoyl)-N{epsilon-7}-(6-[(4S)-4-carboxy-4-(17-carboxyheptadecanamido)butanamido]hexanoyl)-[4A,7K,9E,13Q,17I,18Q,22V,28Y,30W,31L]-hPYY(4-36)] | 8.58 | 8.9 | 8.9
5 | CC(C)CC(=O)N[C@@H](C)C(=O)N1CCC[C@H]1C(=O)N[C@@H](CCC(=O)O)C(=O)N[C@@H](CCCCNC(=O)CCCCCNC(=O)CC[C@H](NC(=O)CCCCCCCCCCCCCCCCC(=O)O)C(=O)O)C(=O)N1CCC[C@H]1C(=O)N[C@@H](CCC(=O)O)C(=O)N[C@@H](C)C(=O)N[C@@H](CC(=O)O)C(=O)N[C@@H](C)C(=O)N[C@@H](CO)C(=O)N[C@@H](CCC(=O)O)C(=O)N[C@@H](CCC(=O)O)C(=O)N[C@@H](CCC(=O)O)C(=O)N[C@@H](CC(C)C)C(=O)N[C@@H](CCC(N)=O)C(=O)N[C@@H](CCCNC(=N)N)C(=O)N[C@@H](Cc1ccc(O)cc1)C(=O)N[C@@H](Cc1ccc(O)cc1)C(=O)N[C@H](C(=O)N[C@@H](CO)C(=O)N[C@@H](CC(C)C)C(=O)N[C@@H](CCCNC(=N)N)C(=O)N[C@@H](Cc1c[nH]cn1)C(=O)N[C@@H](Cc1ccc(O)cc1)C(=O)N[C@@H](Cc1ccc(O)cc1)C(=O)N[C@@H](CC(N)=O)C(=O)N[C@@H](Cc1c[nH]c2ccccc12)C(=O)N[C@@H](CC(C)C)C(=O)N[C@H](C(=O)N[C@@H](CCCNC(=N)N)C(=O)N[C@@H](CCC(N)=O)C(=O)N[C@@H](CCCNC(=N)N)C(=O)N[C@@H](Cc1ccc(O)cc1)C(N)=O)[C@@H](C)O)C(C)C [Compound 108, N{alpha-4}-(3-methylbutanoyl)-N{epsilon-7}-(6-[(4S)-4-carboxy-4-(17-carboxyheptadecanamido)butanamido]hexanoyl)-[4A,7K,9E,10A,14E,18Q,22V,28Y,30W,31L]-hPYY(4-36)] | 8.56 | 8.6 | 8.0
